Test results as given in patent US9902741.
Like-named read-outs stand apart in the source and are kept apart here.

Settings: 14-membered ring, Cs2CO3, DMF, 85.0 °C
[1] = from O=C(NC[C@H](O)CCl)c1cnn2ccc(N3CC(F)(F)CC3c3cc(F)ccc3O)nc12, ether bond, 20.0 mM

| SMILES | ring closure, isolated yield [1] | ring closure, isolated yield (from N—((S)-3-chloro-2-hydroxypropyl)-5-4R)-2-(5-fluoro-2-oxo-1,2-dihydropyridin-3-yl)pyrrolidin-1-yl)pyrazolo[1,5-a]pyrimidine-3-carboxamide hydrochloride, other bond, […]) |
| --- | --- | --- |
| O=C1NC[C@H](O)COc2ccc(F)cc2C2CC(F)(F)CN2c2ccn3ncc1c3n2 (single isomer, unassigned; diastereomer 2) | 24% | – |
| O=C1NC[C@H](O)Cn2cc(F)cc(c2=O)[C@H]2CCCN2c2ccn3ncc1c3n2 | – | 12% |
| O=C1NC[C@H](O)COc2ccc(F)cc2C2CC(F)(F)CN2c2ccn3ncc1c3n2 (single isomer, unassigned; diastereomer 1) | 20% | – |
